{"source": "patent US20220370381A1", "about": "(priority 2016, published 2022)", "key": {"[1]": {"tested_on": "T1, β-Adrenergic (Non-selective)", "T1 construct": "β-1 adrenergic; other: test article 1×10^−6 and 1×10^−5 mol/L; rat brain", "assay": "Competitive radioligand binding assay, β-adrenergic (non-selective)", "set-up": "species or system Rat", "conditions": "test article 1×10^−6 and 1×10^−5 mol/L; rat brain"}, "CRL NMRI mice": {"tested_on": "CRL NMRI mice", "assay": "Mouse 6-Hz model of refractory seizures", "format": "in vivo", "conditions": "5.0 or 20.0 mg/kg i.p.", "method": "The 6 Hz mouse model is a model system used to assess the efficacy of putative anti-seizure medications for refractory epilepsies generally, without regard to type.\nThe efficacy of FA in the mouse 6-Hz model was assessed by behavioral characterization after intraperitoneal injection of CRL NMRI mice (30-35 g) with VHC (50/50 DMSO/PEG200) or FA (5.0 or 20.0 mg/kg). Animals were placed in one of three treatment groups: vehicle (n=10), FA 5 mg/kg (n=6) and FA 20 mg/kg (n=6). Seizures were transcorneal-induced 1 h after injection (6-Hz, 0.2 ms pulse width, 44 mA)."}, "[2]": {"tested_on": "wild-type zebrafish (ZF) larvae", "assay": "PTZ-induced seizures in wild-type zebrafish larvae, behavioral (locomotor) assay", "format": "in vivo", "conditions": "wt zebrafish; p>0.05 vs. VHC+PTZ"}}}
{"smiles": "CCNC(C)Cc1cccc(C(F)(F)F)c1", "note": "(racemic) [fenfluramine, (RS)—N-ethyl-1-[3-(trifluoromethyl)phenyl]propan-2-amine]", "values": [{"measurement": "inhibition of receptor binding (tracer)", "setting": "[1]", "value": "significantly inhibit"}, {"measurement": "period of post-seizure aggression", "setting": "CRL NMRI mice", "value": "did not"}, {"measurement": "seizures in the mouse 6-Hz model", "setting": "CRL NMRI mice; 1 h before 6-Hz 44 mA stimulation, p<0.05 vs. VHC", "value": "significantly reduced seizures"}, {"measurement": "antiseizure effect on PTZ-induced seizures", "setting": "[2]", "value": "no observable antiseizure effects"}]}
